Assay results taken from article PMC4767141, “Discovery of Potent, Orally Bioavailable, Small-Molecule Inhibitors of WNT Signaling from a Cell-Based Pathway Screen” (Journal of Medicinal Chemistry, 2015).

Assays:
[1] = Plasma stability; format: in vitro ADME
[2] = target: T1, GSK3ALPHA (Homo sapiens, UniProt P49840); assay: Millipore kinase panel; format: biochemical; conditions: read-out: % Control
T1 construct: purchased Millipore

[3] = target: T2, HCK (Homo sapiens, UniProt P08631); assay: Millipore kinase panel; format: biochemical; conditions: ATP at Km, read-out: % Control
T2 construct: purchased Millipore KinaseProfiler (kinases); Cerep (receptors and ion channels)

[4] = target: T3, MAPK2 (Homo sapiens, UniProt P28482); assay: Millipore kinase panel; format: biochemical; conditions: ATP at Km, read-out: % Control
T3 construct: purchased Millipore KinaseProfiler (kinases); Cerep (receptors and ion channels)

[5] = target: T4, MKK6 (Homo sapiens, UniProt P52564); assay: Millipore kinase panel; format: biochemical; conditions: read-out: % Control
T4 construct: purchased Millipore KinaseProfiler (kinases); Cerep (receptors and ion channels)

[6] = target: CYP450 2C19 (Homo sapiens, UniProt P33261); assay: CYP450 inhibition; format: in vitro ADME
[7] = target: CYP450 2C9 (Homo sapiens, UniProt P11712); assay: CYP450 inhibition; format: in vitro ADME
[8] = target: CYP450 3A4 (Homo sapiens, UniProt P08684); assay: CYP450 inhibition; format: in vitro ADME
[9] = tested on: BZD (central); assay: CEREP binding panel; conditions: 10 μM, agonist radioligand
[10] = target: T5, CDK1/CYCLINB (Homo sapiens, UniProt P06493); assay: Millipore kinase panel; format: biochemical; conditions: read-out: % Control
T5 construct: purchased Millipore KinaseProfiler (kinases); Cerep (receptors and ion channels)

[11] = target: T6, CDK2/CYCLINE (Homo sapiens, UniProt P24941); assay: Millipore kinase panel; format: biochemical; conditions: read-out: % Control
T6 construct: purchased Millipore KinaseProfiler (kinases); Cerep (receptors and ion channels)

[12] = target: T7, CDK5/P35 (Homo sapiens, UniProt Q00535); assay: Millipore kinase panel; format: biochemical; conditions: read-out: % Control
T7 construct: purchased Millipore KinaseProfiler (kinases); Cerep (receptors and ion channels)

[13] = target: T8, CK1DELTA (Homo sapiens, UniProt P48730); assay: Millipore kinase panel; format: biochemical; conditions: read-out: % Control
T8 construct: purchased Millipore KinaseProfiler (kinases); Cerep (receptors and ion channels)

[14] = target: T9, DDR2 (Homo sapiens, UniProt Q16832); assay: Millipore kinase panel; format: biochemical; conditions: read-out: % Control
T9 construct: purchased Millipore KinaseProfiler (kinases); Cerep (receptors and ion channels)

[15] = target: T10, IGF-1R (Homo sapiens, UniProt P08069); assay: Millipore kinase panel; format: biochemical; conditions: read-out: % Control
T10 construct: purchased Millipore KinaseProfiler (kinases); Cerep (receptors and ion channels)

[16] = target: T11, IR (Homo sapiens, UniProt P06213); assay: Millipore kinase panel; format: biochemical; conditions: read-out: % Control
T11 construct: purchased Millipore KinaseProfiler (kinases); Cerep (receptors and ion channels)

[17] = target: T12, NEK11 (Homo sapiens, UniProt Q8NG66); assay: Millipore kinase panel; format: biochemical; conditions: read-out: % Control
T12 construct: purchased Millipore KinaseProfiler (kinases); Cerep (receptors and ion channels)

[18] = target: T13, P70S6K (Homo sapiens, UniProt P23443); assay: Millipore kinase panel; format: biochemical; conditions: read-out: % Control
T13 construct: purchased Millipore KinaseProfiler (kinases); Cerep (receptors and ion channels)

[19] = target: T14, PI3K GAMMA (Homo sapiens, UniProt P48736); assay: Millipore kinase panel; format: biochemical; conditions: read-out: % Control
T14 construct: purchased Millipore KinaseProfiler (kinases); Cerep (receptors and ion channels)

[20] = target: T15, PKBBETA (Homo sapiens, UniProt P31751); assay: Millipore kinase panel; format: biochemical; conditions: read-out: % Control
T15 construct: purchased Millipore KinaseProfiler (kinases); Cerep (receptors and ion channels)

[21] = target: T16, PKCBETAI (Homo sapiens, UniProt P05771); assay: Millipore kinase panel; format: biochemical; conditions: read-out: % Control
T16 construct: purchased Millipore KinaseProfiler (kinases); Cerep (receptors and ion channels)

[22] = target: T17, CK1GAMMA2 (Homo sapiens, UniProt P78368); assay: Millipore kinase panel; format: biochemical; conditions: read-out: % Control
T17 construct: purchased Millipore KinaseProfiler (kinases); Cerep (receptors and ion channels)

[23] = target: T18, CKIT(D816H) (Homo sapiens, UniProt P10721, D816H); assay: Millipore kinase panel; format: biochemical; conditions: read-out: % Control
T18 construct: purchased Millipore KinaseProfiler (kinases); Cerep (receptors and ion channels)

[24] = target: T19, CKIT(V560G) (Homo sapiens, UniProt P10721, V560G); assay: Millipore kinase panel; format: biochemical; conditions: read-out: % Control
T19 construct: purchased Millipore KinaseProfiler (kinases); Cerep (receptors and ion channels)

[25] = target: T20, CAMKIDELTA (Homo sapiens, UniProt Q8IU85); assay: Millipore kinase panel; format: biochemical; conditions: read-out: % Control
T20 construct: purchased Millipore KinaseProfiler (kinases); Cerep (receptors and ion channels)

[26] = target: T21, CKIT(V654A) (Homo sapiens, UniProt P10721, V654A); assay: Millipore kinase panel; format: biochemical; conditions: read-out: % Control
T21 construct: purchased Millipore KinaseProfiler (kinases); Cerep (receptors and ion channels)

[27] = target: T22, PDGFRALPHA(V561D) (Homo sapiens, UniProt P16234, V561D); assay: Millipore kinase panel; format: biochemical; conditions: read-out: % Control
T22 construct: purchased Millipore KinaseProfiler (kinases); Cerep (receptors and ion channels)

[28] = target: T23, TAO2 (Homo sapiens, UniProt Q9UL54); assay: Millipore kinase panel; format: biochemical; conditions: read-out: % Control
T23 construct: purchased Millipore KinaseProfiler (kinases); Cerep (receptors and ion channels)

[29] = target: T24, CHK2(R145W) (Homo sapiens, UniProt O96017, R145W); assay: Millipore kinase panel; format: biochemical; conditions: read-out: % Control
T24 construct: purchased Millipore KinaseProfiler (kinases); Cerep (receptors and ion channels)

[30] = target: T25, SRC(T341M) (Homo sapiens, UniProt P12931, T341M); assay: Millipore kinase panel; format: biochemical; conditions: read-out: % Control
T25 construct: purchased Millipore KinaseProfiler (kinases); Cerep (receptors and ion channels)

[31] = target: T26, ABL (H396P) (Homo sapiens, UniProt P00519, H396P); assay: Millipore kinase panel; format: biochemical; conditions: read-out: % Control
T26 construct: purchased Millipore KinaseProfiler (kinases); Cerep (receptors and ion channels)

[32] = target: T27, ABL (M351T) (Homo sapiens, UniProt P00519, M351T); assay: Millipore kinase panel; format: biochemical; conditions: read-out: % Control
T27 construct: purchased Millipore KinaseProfiler (kinases); Cerep (receptors and ion channels)

[33] = target: T28, BTK(R28H) (Homo sapiens, UniProt Q06187, R28H); assay: Millipore kinase panel; format: biochemical; conditions: read-out: % Control
T28 construct: purchased Millipore KinaseProfiler (kinases); Cerep (receptors and ion channels)

[34] = target: T29, RET (V804L) (Homo sapiens, UniProt P07949, V804L); assay: Millipore kinase panel; format: biochemical; conditions: read-out: % Control
T29 construct: purchased Millipore KinaseProfiler (kinases); Cerep (receptors and ion channels)

[35] = target: T30, RET(V804M) (Homo sapiens, UniProt P07949, V804M); assay: Millipore kinase panel; format: biochemical; conditions: read-out: % Control
T30 construct: purchased Millipore KinaseProfiler (kinases); Cerep (receptors and ion channels)

[36] = target: T31, PI3 KINASE (H1047R/P85A) (Homo sapiens, UniProt P42336, H1047R); assay: Millipore kinase panel; format: biochemical; conditions: read-out: % Control
T31 construct: purchased Millipore KinaseProfiler (kinases); Cerep (receptors and ion channels)

[37] = target: T32, PEK (Homo sapiens, UniProt Q9NZJ5); assay: Millipore kinase panel; format: biochemical; conditions: read-out: % Control
T32 construct: purchased Millipore KinaseProfiler (kinases); Cerep (receptors and ion channels)

[38] = target: T33, FMS(Y969C) (Homo sapiens, UniProt P07333, Y969C); assay: Millipore kinase panel; format: biochemical; conditions: read-out: % Control
T33 construct: purchased Millipore KinaseProfiler (kinases); Cerep (receptors and ion channels)

[39] = target: T34, PRKAA2 (Homo sapiens, UniProt P54646); assay: Millipore kinase panel; format: biochemical; conditions: read-out: % Control
T34 construct: purchased Millipore KinaseProfiler (kinases); Cerep (receptors and ion channels)

[40] = target: hERG (Homo sapiens, UniProt Q12809); assay: hERG inhibition
[41] = tested on: RKO-F1522 cells; assay: EF1-α promoter firefly luciferase control reporter; conditions: Homo sapiens, read-out: IC50, firefly luciferase reporter downstream of the EF1-α promoter

T34 sequence (P54646 whole entry): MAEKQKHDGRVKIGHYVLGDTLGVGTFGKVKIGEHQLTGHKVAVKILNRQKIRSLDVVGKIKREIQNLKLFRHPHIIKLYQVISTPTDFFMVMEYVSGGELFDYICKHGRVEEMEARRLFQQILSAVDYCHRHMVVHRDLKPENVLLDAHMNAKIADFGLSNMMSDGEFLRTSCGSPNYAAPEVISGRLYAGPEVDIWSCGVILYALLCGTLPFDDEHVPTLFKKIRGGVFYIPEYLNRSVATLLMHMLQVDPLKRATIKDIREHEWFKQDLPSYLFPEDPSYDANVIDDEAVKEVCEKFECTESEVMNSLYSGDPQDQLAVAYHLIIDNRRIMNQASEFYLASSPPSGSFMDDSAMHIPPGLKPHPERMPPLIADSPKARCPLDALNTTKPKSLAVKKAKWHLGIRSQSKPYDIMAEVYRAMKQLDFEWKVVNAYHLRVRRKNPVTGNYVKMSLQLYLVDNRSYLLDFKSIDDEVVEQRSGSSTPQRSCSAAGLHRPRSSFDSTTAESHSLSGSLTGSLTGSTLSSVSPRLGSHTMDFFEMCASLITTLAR
T34 sequence (Q9Y478 whole entry partner): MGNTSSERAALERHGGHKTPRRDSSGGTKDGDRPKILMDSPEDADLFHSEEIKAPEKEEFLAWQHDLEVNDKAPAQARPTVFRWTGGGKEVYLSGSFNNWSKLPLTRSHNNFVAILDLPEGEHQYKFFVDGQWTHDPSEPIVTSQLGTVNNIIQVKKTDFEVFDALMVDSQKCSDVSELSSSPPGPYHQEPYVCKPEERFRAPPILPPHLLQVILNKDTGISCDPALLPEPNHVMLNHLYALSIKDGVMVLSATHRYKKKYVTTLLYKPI
T34 sequence (P54619 whole entry partner): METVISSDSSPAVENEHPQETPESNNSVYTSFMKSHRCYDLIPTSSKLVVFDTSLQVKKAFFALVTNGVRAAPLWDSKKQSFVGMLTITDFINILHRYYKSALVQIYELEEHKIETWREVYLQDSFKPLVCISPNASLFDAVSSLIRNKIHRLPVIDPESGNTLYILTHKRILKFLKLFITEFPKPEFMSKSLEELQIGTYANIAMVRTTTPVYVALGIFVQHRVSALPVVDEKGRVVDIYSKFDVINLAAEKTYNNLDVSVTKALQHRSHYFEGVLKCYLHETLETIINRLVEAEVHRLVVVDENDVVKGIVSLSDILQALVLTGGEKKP
T2 sequence (P08631 whole entry): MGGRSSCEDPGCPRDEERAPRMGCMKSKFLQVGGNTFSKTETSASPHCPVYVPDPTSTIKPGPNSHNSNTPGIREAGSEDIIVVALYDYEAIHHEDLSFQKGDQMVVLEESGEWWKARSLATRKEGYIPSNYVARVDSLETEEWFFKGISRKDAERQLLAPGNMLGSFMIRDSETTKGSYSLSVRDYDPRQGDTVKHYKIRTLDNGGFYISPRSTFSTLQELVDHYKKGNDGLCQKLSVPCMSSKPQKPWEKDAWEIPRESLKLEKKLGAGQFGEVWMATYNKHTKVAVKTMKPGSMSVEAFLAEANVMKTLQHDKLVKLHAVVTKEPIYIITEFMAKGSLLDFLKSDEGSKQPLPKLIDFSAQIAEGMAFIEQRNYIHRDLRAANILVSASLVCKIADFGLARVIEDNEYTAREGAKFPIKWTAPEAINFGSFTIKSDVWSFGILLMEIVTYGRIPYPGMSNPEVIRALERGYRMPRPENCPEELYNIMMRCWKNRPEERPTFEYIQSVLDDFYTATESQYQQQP
T31 sequence (P42336 whole entry H1047R): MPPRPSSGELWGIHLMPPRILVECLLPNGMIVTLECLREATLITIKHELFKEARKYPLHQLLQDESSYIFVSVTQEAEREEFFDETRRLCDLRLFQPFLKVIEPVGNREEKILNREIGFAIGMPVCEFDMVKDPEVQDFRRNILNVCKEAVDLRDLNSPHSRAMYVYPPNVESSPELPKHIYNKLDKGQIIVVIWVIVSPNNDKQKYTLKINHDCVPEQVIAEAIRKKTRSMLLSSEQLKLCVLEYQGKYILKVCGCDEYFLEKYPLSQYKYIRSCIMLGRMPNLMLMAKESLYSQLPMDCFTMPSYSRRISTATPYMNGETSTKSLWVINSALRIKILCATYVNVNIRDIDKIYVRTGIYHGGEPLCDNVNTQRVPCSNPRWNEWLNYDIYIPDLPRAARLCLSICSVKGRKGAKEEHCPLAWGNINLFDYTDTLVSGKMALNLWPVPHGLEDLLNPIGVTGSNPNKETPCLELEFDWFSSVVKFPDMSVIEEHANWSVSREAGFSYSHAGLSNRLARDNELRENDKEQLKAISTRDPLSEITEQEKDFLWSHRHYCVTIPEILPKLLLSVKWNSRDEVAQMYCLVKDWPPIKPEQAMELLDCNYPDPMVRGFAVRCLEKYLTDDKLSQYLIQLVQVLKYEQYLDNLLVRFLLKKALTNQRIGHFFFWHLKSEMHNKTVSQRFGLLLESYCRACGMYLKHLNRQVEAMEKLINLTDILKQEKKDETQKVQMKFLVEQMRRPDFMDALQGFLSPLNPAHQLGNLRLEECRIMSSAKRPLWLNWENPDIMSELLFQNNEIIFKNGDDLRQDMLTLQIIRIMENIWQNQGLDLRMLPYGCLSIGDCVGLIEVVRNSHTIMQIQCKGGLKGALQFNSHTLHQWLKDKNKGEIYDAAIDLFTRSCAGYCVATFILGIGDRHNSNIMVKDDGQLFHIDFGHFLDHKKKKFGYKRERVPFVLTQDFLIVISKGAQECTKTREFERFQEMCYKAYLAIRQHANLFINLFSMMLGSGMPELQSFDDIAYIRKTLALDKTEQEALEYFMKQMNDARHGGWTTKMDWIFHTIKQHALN
T31 sequence (P27986 2-724 partner): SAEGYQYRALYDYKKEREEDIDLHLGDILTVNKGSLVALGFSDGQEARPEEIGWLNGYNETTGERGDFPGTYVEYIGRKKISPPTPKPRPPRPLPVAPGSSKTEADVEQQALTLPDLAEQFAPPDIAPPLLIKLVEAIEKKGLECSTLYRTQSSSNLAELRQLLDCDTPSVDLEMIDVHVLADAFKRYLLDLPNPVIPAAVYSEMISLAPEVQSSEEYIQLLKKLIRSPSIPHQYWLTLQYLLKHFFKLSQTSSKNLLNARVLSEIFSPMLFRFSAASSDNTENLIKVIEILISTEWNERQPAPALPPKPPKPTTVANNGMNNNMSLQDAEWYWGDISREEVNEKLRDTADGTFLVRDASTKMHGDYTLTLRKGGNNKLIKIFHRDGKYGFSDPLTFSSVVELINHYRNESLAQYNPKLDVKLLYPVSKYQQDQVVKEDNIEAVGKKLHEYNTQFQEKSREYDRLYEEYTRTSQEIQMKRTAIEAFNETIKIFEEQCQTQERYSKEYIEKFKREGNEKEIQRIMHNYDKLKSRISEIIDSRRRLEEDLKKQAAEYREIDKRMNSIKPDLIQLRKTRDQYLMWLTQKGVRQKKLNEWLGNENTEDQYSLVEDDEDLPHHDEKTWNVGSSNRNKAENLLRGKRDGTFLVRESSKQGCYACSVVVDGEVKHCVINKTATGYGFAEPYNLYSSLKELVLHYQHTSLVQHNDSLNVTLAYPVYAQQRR
T10 sequence (P08069 31-1367): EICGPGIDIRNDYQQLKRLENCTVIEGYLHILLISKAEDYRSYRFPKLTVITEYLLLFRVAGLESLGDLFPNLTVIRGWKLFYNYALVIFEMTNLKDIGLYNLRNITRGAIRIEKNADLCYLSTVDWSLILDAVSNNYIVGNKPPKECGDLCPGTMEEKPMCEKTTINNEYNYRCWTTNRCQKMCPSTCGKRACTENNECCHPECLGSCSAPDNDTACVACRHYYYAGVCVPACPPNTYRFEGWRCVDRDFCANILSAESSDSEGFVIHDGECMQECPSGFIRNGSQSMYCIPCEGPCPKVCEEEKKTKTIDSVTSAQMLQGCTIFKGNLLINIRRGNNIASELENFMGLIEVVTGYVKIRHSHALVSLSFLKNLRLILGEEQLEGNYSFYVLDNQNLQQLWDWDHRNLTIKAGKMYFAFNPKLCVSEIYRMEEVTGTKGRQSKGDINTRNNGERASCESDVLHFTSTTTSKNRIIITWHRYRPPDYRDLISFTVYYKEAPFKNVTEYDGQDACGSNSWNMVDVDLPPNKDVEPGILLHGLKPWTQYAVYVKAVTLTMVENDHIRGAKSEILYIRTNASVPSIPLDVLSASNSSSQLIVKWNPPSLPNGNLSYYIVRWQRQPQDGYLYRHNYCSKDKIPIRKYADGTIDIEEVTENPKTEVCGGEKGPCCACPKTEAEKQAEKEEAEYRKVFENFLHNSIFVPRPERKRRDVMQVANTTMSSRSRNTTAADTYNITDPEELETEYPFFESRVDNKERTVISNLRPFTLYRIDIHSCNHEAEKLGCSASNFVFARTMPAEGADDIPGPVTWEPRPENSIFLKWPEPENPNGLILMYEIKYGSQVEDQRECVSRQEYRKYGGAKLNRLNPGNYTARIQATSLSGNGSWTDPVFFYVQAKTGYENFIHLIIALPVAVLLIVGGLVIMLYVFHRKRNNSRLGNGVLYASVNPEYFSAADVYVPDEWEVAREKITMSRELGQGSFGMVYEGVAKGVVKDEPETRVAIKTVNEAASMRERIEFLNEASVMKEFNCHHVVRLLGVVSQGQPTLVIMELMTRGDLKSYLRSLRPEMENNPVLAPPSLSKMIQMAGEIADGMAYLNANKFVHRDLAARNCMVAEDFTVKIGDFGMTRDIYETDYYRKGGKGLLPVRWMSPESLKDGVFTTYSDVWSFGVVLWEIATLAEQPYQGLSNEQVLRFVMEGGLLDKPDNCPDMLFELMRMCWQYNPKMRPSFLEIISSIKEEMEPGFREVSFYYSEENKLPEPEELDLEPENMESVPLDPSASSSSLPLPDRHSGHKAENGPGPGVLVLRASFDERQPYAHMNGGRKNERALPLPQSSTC

## O=C1NCCC12CCN(c1c(Cl)cncc1-c1ccc(N3CCOCC3)cc1)CC2 [Compound 44, 8-(3-Chloro-5-(4-morpholin-4-ylphenyl)pyridin-4-yl)-2,8-diazaspiro[4.5]decan-1-one]
[1]
  plasma instability: no plasma instability was observed
[2]
  remaining activity at 1 µM: -39%
[3]
  remaining activity at 1 µM: 3%
[4]
  remaining activity at 1 µM: 10%
[5]
  remaining activity at 1 µM: 48%

## Cn1cc(-c2ccc(-c3cncc(Cl)c3N3CCC4(CCNC4=O)CC3)cc2)cn1 [Compound 74, 8-(3-Chloro-5-(4-(1-methyl-1H-pyrazol-4-yl)phenyl)pyridin-4-yl)-2,8-diazaspiro[4.5]decan-1-one]
[6]
  IC50: 8 µM
[7]
  IC50: 4.2 µM
[8]
  IC50: 11.4 µM
[9]
  % Inhibition of Control Specific Binding: 18%
[10]
  remaining activity at 1 µM: -9%
[11]
  remaining activity at 1 µM: -14%
[12]
  remaining activity at 1 µM: -16%
[13]
  remaining activity at 1 µM: 5%
[14]
  remaining activity at 1 µM: 5%
[15]
  remaining activity at 1 µM: 5%
[16]
  remaining activity at 1 µM: -8%
[17]
  remaining activity at 1 µM: 7%
[18]
  remaining activity at 1 µM: -15%
[19]
  remaining activity at 1 µM: 2%
[20]
  remaining activity at 1 µM: -13%
[21]
  remaining activity at 1 µM: -23%
[22]
  remaining activity at 1 µM: 10%
[23]
  remaining activity at 1 µM: -7%
[24]
  remaining activity at 1 µM: -5%
[25]
  remaining activity at 1 µM: -4%
[26]
  remaining activity at 1 µM: -16%
[27]
  remaining activity at 1 µM: 6%
[28]
  remaining activity at 1 µM: -15%
[29]
  remaining activity at 1 µM: 3%
[30]
  remaining activity at 1 µM: -6%
[31]
  remaining activity at 1 µM: 17%
[32]
  remaining activity at 1 µM: 5%
[33]
  remaining activity at 1 µM: -4%
[34]
  remaining activity at 1 µM: -8%
[35]
  remaining activity at 1 µM: -8%
[36]
  remaining activity at 1 µM: -1%
[37]
  remaining activity at 1 µM: 8%
[38]
  remaining activity at 1 µM: -31%
[39]
  remaining activity at 1 µM: 2%
[40]
  IC50: > 10 µM
[41]
  IC50: > 10 µM
